Read-outs that look alike come from different tables or passages of the source. Peptide text beside a SMILES is read from it.

Experiment [1] deals with T1, HLA-A2 (Homo sapiens, UniProt P04439, D140Y/D185E/D98H/E176V/E277Q/G131W/G231S/I119V/I121R/I166T/I218V/L300P/L318F/N151K/N90K/P208A/P217A/Q86G/Q94H/R138H/R169H/T345S).
T1 construct: The HLA-A2 stabilization assay was performed using T2 cells; endogenous in cells; host or cells: T2 cells (LCLxT lymphoblastoid hybrid cell line 0.1743CEM.T2)
Nature of the experiment: HLA-A2 stabilization assay using T2 cells. Conditions: for binding to HLA-A2: in words, peptides derived from immunopeptidome. It is filed as binding.

Experiment [2] relates to CD8+ T cells. Nature of the experiment: Enrichment of epitope-specific CD8 T cells from healthy donors, epitope-specific IFNg production (ELISA). The format is cell-based, human. Conditions: positive co-cultures / co-cultures tested. As for the experimental part:
(§1) Enrichment of epitope-specific CD8 T cells was performed according to the protocol described by Butler et al., Clin Cancer Res.;13(6):1857-1867 (2007), doi:10.1158/1078-0432, but included the following amendments. CD8+ T lymphocytes were collected from PBMCs by magnetic-activated cell sorting (MACS) according to the CD8 isolation kit (Miltenyi Biotec). CD8+ T cells with >95% purity were subsequently cultured in T cell medium supplemented with IL-2 (36 IU/mL; but no gentamycin) for 1 day, after which expansion cycles started. K562ABC cells (kindly provided by prof. Bruce Levine, University of Pennsylvania, PA) were loaded with 10 μg/ml ROPN1 and/or ROPN1B peptide and incubated for 5 h at RT in serum-free medium, after which cells were washed and fixed with 0,1% paraformaldehyde. After washing, K562ABC cells were suspended at 0.1×10^6/mL and co-cultured with T cells in a 1:20 ratio. IL-2 (36 IU/mL) and IL-15 ([…]) were added at days 1 and 3 days after start of co-culture, and after 6 days, T cells were counted, suspended at 2×10^6/mL and rested for 1 day, after which the next cycle commenced (this schedule continued up to 4 or 5 cycles). Following 4 and 5 cycles, T cells were stained with pMHC multimers (HLA*0201/MLN, Immudex, Copenhagen, Denmark). pMHC-PE were pre-incubated at RT for 10 min followed by incubation with 7AAD, anti-CD3-FITC and anti-CD8-APC for 20 min. Cells were fixed with 1% paraformaldehyde and TCR expression was measured with flow cytometry and analyzed using FlowJoX software. FIG. 4A schematically depicts the procedure to enrich epitope-specific T cells, and obtainthe corresponding TCR genes.
Enriched T cells were tested for ROPN1 and/or ROPN1B epitope-specific IFNY production. To this end, T2 cells (4×10^6/mL) were loaded with peptide (20 ng/mL) for 30 min. T cells (2×10^5) were cultured in a 1:1 ratio with T2 cells in a round bottom 96-wells plate, and the next day supernatant was collected and IFN-γ production was measured with an Enzyme-linked immunosorbent assay (ELISA, Invitrogen) according to manufacturer's protocol (FIG. 4B). T2 cells without peptide were included as a negative control; and staphylococcal enterotoxin B (0.1 μg, Sigma) was used as a positive control.
Enrichment of epitope-specific T cells was performed by co-culturing naïve T cells with CD11c-positive cells that were loaded with peptide. PBMCs were passed through a cell strainer (70 μm) and used for the isolation of naïve T cells and CD11c cells. To isolate CD11c-positive cells (typically dendritic cells, DC), PBMCs were stained for 10 mM at 4° C. with Fc block (10 μL/10^7 PBMCs, BD Pharmingen, Vianen, the Netherlands), after which cells were stained with CD11c-PE antibody (10 μL/10^7 PBMCs, BD Pharmingen) for 30 mM at 4° C., washed, and incubated with PE beads (10 μL/10^7 PBMCs, Miltenyi Biotech, Bergisch Gladbach, Germany) for another […] at 4° C. After washing, cells were dissolved in magnetic-activated cell sorting (MACS) buffer and passed through a MACS LS column (Miltenyi Biotec) to positively select CD11c cells. After selection, CD11c cells were irradiated with 30 Gy, and cultured overnight in a 24-wells plate (1×10^6/mL) in RPMI medium supplemented with 1% human serum (Sanquin), 1% antibiotics, […] L-glutamine, a DC maturation cocktail (a mixture of GM-CSF (10 ng/mL, ImmunoTools, Germany), IL-4 (10 ng/mL, ImmunoTools), LPS (100 ng/mL, Invitrogen, Goteborg, Sweden) and IFNY (10 ng/mL, Preprotech, London, United Kingdom)), as well as peptide (10 pg/mL). Naïve T cells were isolated with use of the Naïve T Cell isolation kit (Miltenyi Biotec) according to the manufacturer's protocol, and suspended in RPMI medium supplemented with 5% human serum (Sanquin), 1% antibiotics, […] L-glutamine and IL-7 (5 ng/mL, BD Pharmingen). The run-through of the naïve T cell selection was frozen down and used for re-stimulation of epitope-specific T cells. […]

The test system of experiment [3] is CD8+ T cells. Nature of the experiment: peptide:MHC multimer/tetramer staining of enriched T cells (flow cytometry). The format is cell-based, human. Conditions: Table 4; enriched T cells after enrichment cycles. As for the experimental part: as §1
Following enrichment, T cells were tested for ROPN1 and/or ROPN1B epitope-specific IFNY production. To this end, T2 cells (1×10^6/mL) were loaded with peptide (20 ng/mL) for 30 min, after which T cells (1×10^5) were cultured in a 1:1 ratio with T2 cells in a round bottom 96-wells plate for 18 h. Supernatant was collected and IFN-γ production was measured with an Enzyme-linked immunosorbent assay (ELISA, BioLegend) according to the manufacturer's protocol (FIG. 9A). T2 cells loaded with an irrelevant peptide were included as a negative control. T cell IFNg production was considered epitope-specific in case levels exceeded 200 pg/ml, and levels were minimally twice as high as for irrelevant peptide (see for full listing of criteria, FIG. 8). T cells that fulfilled these criteria were stained with peptide:MHC (pMHC) tetramers to determine the frequency of epitope-specific T cells. Empty Loadable HLA Tetramers (5 μL, Tetramer shop, Kongens Lyngby, Denmark) were incubated with 0.5 μL peptide (200 μM) for 30 min on ice. Complexes of pMHC were centrifuged (3300 g, 5 min) and incubated with 0.1×10^6 T cells for 15 min at 37° C. in the dark. Next, an antibody cocktail containing CD3-FITC (1:30, BD) and CD8-APC (1:300, eBiosciences) was added and incubated for an additional 30 min at 4° C. in the dark. Finally, T cells were washed twice and fixed with 1% paraformaldehyde (PFA), after which events were acquired with FACSCelesta (BD) and analyzed using FlowJoX software.
For orientation: A flow cytometer gives signals particle by particle.

Experiment [4] concerns the target T2, HLA-A2 (HLA-A2:01) on T2 cells (human).
T2 construct: detected with anti-HLA-A2 mAb BB7.2
The experiment in a line: HLA-A2 stabilization assay on T2 cells (anti-HLA-A2-PE, flow cytometry), single peptide concentration 25 ug/mL [panel E].

In experiment [5] the target is T2, HLA-A2 (HLA-A2:01) on T2 cells. Nature of the experiment: HLA-A2 stabilization assay on T2 cells (anti-HLA-A2-PE, flow cytometry), single peptide concentration [panel D].
Experiment [6] shares this target. Nature of the experiment: HLA-A2 stabilization assay on T2 cells, peptide titration (Example 2, repeated); column Affinity for HLA.A2.01 (M).
Experiment [7] has the same target. Nature of the experiment: HLA-A2 stabilization assay on T2 cells, peptide titration, flow cytometry with anti-HLA-A2 BB7.2; column Affinity for HLA A2:01 (M).
The target is the same in experiment [8]. The experiment in a line: HLA-A2 stabilization assay on T2 cells, peptide titration; amplitude relative to that of reference peptide YLE [panel D].
For experiment [9] the target is unchanged. The experiment in a line: HLA-A2 stabilization assay on T2 cells, peptide titration; amplitude = highest data point corrected for baseline [panel E].
The mark [10] stands for this setting: Table 2 (Example 1), EC50 of peptide titration on T2 cells, read-out: Affinity for HLA A2:01.
Setting [11] is: Table 4 (Examples 1 and 2), EC50 of peptide titration on T2 cells, read-out: Affinity for HLA.A2.01.
Setting [12] is: Example 1, top-ranked epitopes, no legible unit, read-out: EC50 (HLA-A2 binding).
Setting [13] is: Table 2 (Example 1), healthy donor T cells.

With `CC(C)C[C@H](NC(=O)[C@H](C)N)C(=O)N[C@@H](C)C(=O)N[C@@H](CS)C(=O)N[C@@H](CO)C(=O)N[C@@H](C)C(=O)N[C@@H](CC(C)C)C(=O)NCC(=O)N[C@H](C(=O)O)C(C)C` (H-ALACSALGV-OH; N-terminus and C-terminus assumed), the EC50 in [1] (setting [10]) worked out at 3.16 µM; in [1] (setting [11]), 2.84 µM. Besides, in experiment [2] (Table 4), the “T cell responses observed (IFNg) against epitope” value (“T cell responses observed (IFNg)” for short) is 0/4 co-cultures.

Regarding `CC[C@H](C)[C@H](NC(=O)[C@H](Cc1ccc(O)cc1)NC(=O)[C@@H](NC(=O)[C@H](Cc1ccc(O)cc1)NC(=O)[C@H](CC(C)C)NC(=O)[C@H](Cc1ccccc1)NC(=O)[C@H](CCC(N)=O)NC(=O)[C@@H](N)Cc1ccccc1)[C@@H](C)O)C(=O)N[C@@H](C)C(=O)O` (H-FQFLYTYIA-OH; N-terminus and C-terminus assumed), the EC50 was determined as 3.3 µM in [1] (setting [12]), 3.28 µM in experiment [1] (setting [10]) and 3.43 µM in [1] (setting [11]). Moreover, the “pMHC staining % pMHC+ CD8+ in CD3+” value in experiment [3] is 0.43%. Further, the “T cell responses observed (IFNg)” value in [2] (setting [13]) and in experiment [2] (Table 4) was 1/4 co-cultures throughout.

Turning to `CSCC[C@H](NC(=O)[C@@H](N)CCCCN)C(=O)N[C@@H](CC(C)C)C(=O)N[C@@H](CCCCN)C(=O)N[C@@H](CCC(=O)O)C(=O)N[C@@H](Cc1ccccc1)C(=O)N[C@@H](C)C(=O)N[C@@H](CCCCN)C(=O)N[C@@H](C)C(=O)O` (H-KMLKEFAKA-OH; N-terminus and C-terminus assumed), the EC50 in [1] (setting [10]) worked out at 91.2 µM; in experiment [1] (setting [11]), 38.2 µM. In addition, the “T cell responses observed (IFNg)” value in experiment [2] (Table 4) is 0/2 co-cultures.

On to `CC[C@H](C)[C@H](NC(=O)[C@H](CCCCN)NC(=O)[C@H](CC(C)C)NC(=O)[C@@H](NC(=O)[C@@H](N)CCCCN)[C@@H](C)O)C(=O)N[C@H](C(=O)N[C@@H](CS)C(=O)N[C@@H](CCC(=O)O)C(=O)N[C@H](C(=O)O)C(C)C)C(C)C` (H-KTLKIVCEV-OH; N-terminus and C-terminus assumed), for which the EC50 stood at 4.4 µM in [1] (setting [12]), 4.35 µM in [1] (setting [10]) and 4.4 µM in [1] (setting [11]). For the same molecule, the “pMHC staining % pMHC+ CD8+ in CD3+” value in experiment [3] came out at 0.28%. In addition, the “T cell responses observed (IFNg)” value in experiment [2] (setting [13]) and in experiment [2] (Table 4) was 2/4 co-cultures throughout.

`CC[C@H](C)[C@H](NC(=O)[C@@H](NC(=O)[C@@H](N)CC(C)C)[C@@H](C)CC)C(=O)N[C@@H](CCCNC(=N)N)C(=O)N[C@@H](C)C(=O)N[C@@H](CCC(=O)O)C(=O)N[C@@H](CCC(=O)O)C(=O)N[C@@H](CC(C)C)C(=O)N[C@@H](C)C(=O)N[C@@H](CCC(N)=O)C(=O)N[C@@H](CCSC)C(=O)O` (H-LIIRAEELAQM-OH; N-terminus and C-terminus assumed): the EC50 in experiment [1] (setting [10]) and in [1] (setting [11]) was 6.99 µM each time. For the same molecule, the “binding to HLA-A2” value in [1] was “did bind to HLA-A2 with high affinity”. In addition, the “pMHC staining % pMHC+ CD8+ in CD3+” value in [3] stood at 0.60%. For the same molecule, the “T cell responses observed (IFNg)” value in experiment [2] (Table 4) was 1/7 co-cultures.

Turning to `CC(C)C[C@H](NC(=O)[C@H](C)NC(=O)[C@H](CO)NC(=O)[C@H](CS)NC(=O)[C@H](C)NC(=O)[C@H](CC(C)C)NC(=O)[C@H](C)NC(=O)[C@H](CC(C)C)NC(=O)[C@@H](N)Cc1ccccc1)C(=O)O` [FLALACSAL] (H-FLALACSAL-OH; N-terminus and C-terminus assumed), the EC50 in experiment [1] (Example 1, top-ranked epitopes, read-out: EC50 (HLA-A2 binding)) worked out at 5.1 µM; in experiment [1] (setting [10]), 5.05 µM; in [1] (setting [11]), 4.5 µM. Also, in [3], the “pMHC staining % pMHC+ CD8+ in CD3+” value is on record as 0.077%. Besides, the “T cell responses observed (IFNg)” value in [2] (setting [13]) and in experiment [2] (Table 4) was 2/5 co-cultures throughout.

For “AELTPELLKI (Epitope 16) [eluted 10-mer, mapped in silico to HLA-B40:01]”, in [1], the “binding to HLA-A2” value is listed as “did not bind to HLA-A2”.

For GLPRIPFST (ROPN1B, predicted), the Minimum stability in [4] and in experiment [5] was 1.06 fold change over baseline in each case.

With FLALACSAL (Synthetic peptide) [Epitope 2 peptide FLALACSAL of ROPN1 and ROPN1B], the EC50 in experiment [6] turned out to be 4.5 µM; in experiment [7], 5.05 µM. Further, the Minimum stability in experiment [4] was 1.62 fold change over baseline; in [5], 1.41 fold change over baseline. For the same molecule, the Amplitude in experiment [8] was 0.95 relative to YLE; in [9] it was 3800 geometric mean normalized to baseline.

As to HVSRMLNYI (ROPN1B, predicted), the Minimum stability in experiment [4] and in experiment [5] was 1.09 fold change over baseline in each case.

Source of the values: patent US20240131155A1, “T CELLS FOR USE IN THERAPY” (Erasmus University Medical Center Rotterdam, priority 2021, published 2024).
